Results from article PMC3654564 (ACS Medicinal Chemistry Letters, 2013).
Substitutions are numbered along the chain they refer to.

Assays:
mV523I (mCOX-2 mutant) = biological target: T1, mV523I (mCOX-2 mutant) (Mus musculus, UniProt Q05769, V509I); assay: COX inhibition screening assay, mCOX-2 V523I mutant; format: biochemical
T1 sequence (Q05769 18-604 V509I): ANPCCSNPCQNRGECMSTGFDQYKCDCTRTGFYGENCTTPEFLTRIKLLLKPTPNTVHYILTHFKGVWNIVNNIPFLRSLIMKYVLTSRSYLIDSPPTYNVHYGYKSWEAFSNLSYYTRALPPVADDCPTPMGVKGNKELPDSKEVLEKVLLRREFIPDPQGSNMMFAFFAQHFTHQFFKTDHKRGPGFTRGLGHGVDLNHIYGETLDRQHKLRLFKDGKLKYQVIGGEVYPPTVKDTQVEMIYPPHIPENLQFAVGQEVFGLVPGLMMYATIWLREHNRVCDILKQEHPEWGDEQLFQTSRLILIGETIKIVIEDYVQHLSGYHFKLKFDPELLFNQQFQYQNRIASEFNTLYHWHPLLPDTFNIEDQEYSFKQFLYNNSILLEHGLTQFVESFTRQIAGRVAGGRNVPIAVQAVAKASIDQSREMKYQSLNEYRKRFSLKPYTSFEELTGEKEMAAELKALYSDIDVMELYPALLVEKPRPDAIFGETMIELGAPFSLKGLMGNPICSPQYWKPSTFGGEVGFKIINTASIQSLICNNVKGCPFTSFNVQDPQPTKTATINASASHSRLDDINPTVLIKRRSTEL

mR120A (mCOX-2 mutant) = biological target: T2, mR120A (mCOX-2 mutant) (Mus musculus, UniProt Q05769, R106A); assay: COX inhibition screening assay, mCOX-2 R120A mutant; format: biochemical; conditions: inhibitor concentrations of up to 100 μM
T2 sequence (Q05769 18-604 R106A): T1 sequence (Q05769 18-604 V509I) with R89A, I492V

oCOX-1 = biological target: T3, oCOX-1 (Ovis aries, UniProt P05979); assay: COX inhibition screening assay; format: biochemical, ovine
T3 sequence (P05979 25-600): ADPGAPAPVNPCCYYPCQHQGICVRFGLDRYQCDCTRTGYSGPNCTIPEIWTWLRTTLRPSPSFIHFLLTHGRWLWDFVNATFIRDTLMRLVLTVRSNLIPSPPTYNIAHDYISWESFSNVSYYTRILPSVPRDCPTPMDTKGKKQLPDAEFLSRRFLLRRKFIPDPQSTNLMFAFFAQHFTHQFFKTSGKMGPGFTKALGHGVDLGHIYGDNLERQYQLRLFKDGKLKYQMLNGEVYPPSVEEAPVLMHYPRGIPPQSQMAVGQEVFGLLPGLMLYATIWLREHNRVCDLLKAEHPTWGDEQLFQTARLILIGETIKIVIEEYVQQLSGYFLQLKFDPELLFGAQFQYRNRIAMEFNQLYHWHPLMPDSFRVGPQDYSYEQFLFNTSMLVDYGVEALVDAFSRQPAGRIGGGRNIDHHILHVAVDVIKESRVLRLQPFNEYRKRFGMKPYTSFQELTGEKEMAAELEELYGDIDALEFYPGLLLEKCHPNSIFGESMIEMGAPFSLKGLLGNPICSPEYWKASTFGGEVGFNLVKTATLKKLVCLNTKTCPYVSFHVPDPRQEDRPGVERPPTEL

[1] = Gastrointestinal tolerability observation in rats; format: in vivo, rat
hCOX-2 = biological target: T4, hCOX-2 (Homo sapiens, UniProt P35354); assay: Time-dependent COX inhibition assay; format: biochemical
T4 sequence (P35354 18-604): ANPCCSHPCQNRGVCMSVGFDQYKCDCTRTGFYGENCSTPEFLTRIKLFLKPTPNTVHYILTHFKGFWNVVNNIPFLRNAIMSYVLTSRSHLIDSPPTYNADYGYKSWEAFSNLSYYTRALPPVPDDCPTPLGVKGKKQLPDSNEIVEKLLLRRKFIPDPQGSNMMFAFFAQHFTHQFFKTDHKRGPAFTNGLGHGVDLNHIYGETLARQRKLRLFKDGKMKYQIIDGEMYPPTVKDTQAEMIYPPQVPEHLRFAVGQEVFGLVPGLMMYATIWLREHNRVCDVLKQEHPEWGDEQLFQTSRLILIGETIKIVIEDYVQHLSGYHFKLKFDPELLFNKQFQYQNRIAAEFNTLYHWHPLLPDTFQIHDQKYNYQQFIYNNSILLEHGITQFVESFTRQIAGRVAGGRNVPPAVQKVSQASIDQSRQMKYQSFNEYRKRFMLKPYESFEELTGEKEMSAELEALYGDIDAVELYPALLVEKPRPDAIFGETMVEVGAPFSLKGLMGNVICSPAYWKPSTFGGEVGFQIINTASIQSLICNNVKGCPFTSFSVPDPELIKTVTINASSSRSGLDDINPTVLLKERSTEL

[2] = system: carrageenan-induced rat paw edema; assay: Carrageenan-induced rat footpad edema model; format: in vivo; conditions: oral in corn oil 1 h postcarrageenan, footpad volume 2 h later
mY355F (mCOX-2 mutant) = biological target: T5, mY355F (mCOX-2 mutant) (Mus musculus, UniProt Q05769, Y341F); assay: COX inhibition screening assay, mCOX-2 Y355F mutant; format: biochemical; conditions: inhibitor concentrations of up to 100 μM
T5 sequence (Q05769 18-604 Y341F): T1 sequence (Q05769 18-604 V509I) with Y324F, I492V

COX-2 = conditions: also, to some extent, COX-1; cited from earlier work
[3] = Sprague–Dawley rats, doses higher than 2 mg/kg; ref previous studies; cited from earlier work

Row | IC50 (mV523I (mCOX-2 mutant)) | inhibition of Arg-120 to Ala mutant of COX-2 (mR120A (mCOX-2 mutant)) | IC50 (oCOX-1) | effect on oCOX-1 (oCOX-1; up to very high inhibitor concentrations (100 μM)) | KI for initial binding to COX-2, fold lower than for indomethacin (hCOX-2) | Ki (hCOX-2) | k2, fold slower than for indomethacin (hCOX-2) | k2/KI, fold greater than for indomethacin (hCOX-2) | forward rate constant (k2) (hCOX-2; wild-type hCOX-2) | inhibition of Tyr355 to Phe mutant of COX-2 (mY355F (mCOX-2 mutant)) | SMILES | gastrointestinal bleeding ([1]; rat, oral, tested up to 10 mg/kg) | overnight observation after testing ([1]; treated rats maintained overnight) | EC50, anti-inflammatory activity [2] | COX-2 inhibition (type) (COX-2) | gastric toxicity at higher doses [3]
1 | > 4000 nM | unable to inhibit | > 100000 nM | no appreciable effect | approximately 9 fold | 1500 ± 260 nM | 3 fold | approximately 3 fold | 0.020 ± 0.001 s^–1 | unable to inhibit | COc1ccc2c(c1)c(CC(=O)O)c(C(F)(F)F)n2C(=O)c1ccc(Cl)cc1 [CF3–indomethacin, 2-(1-(4-chlorobenzoyl)-5-methoxy-2′-trifluoromethyl-1H-indol-3-yl)ethanoic acid] | no evidence of gastrointestinal bleeding | no passage of blood from the gastrointestinal tract was observed | 1.7 mg/kg | – | –
2 | – | – | – | – | – | – | – | – | – | – | COc1ccc2c(c1)c(CC(=O)O)cn2C(=O)c1ccc(Cl)cc1 [des-methyl derivative] | – | – | – | weak, reversible inhibitor | –
3 | – | – | – | – | – | – | – | – | – | – | COc1ccc2c(c1)c(CC(=O)O)c(C)n2C(=O)c1ccc(Cl)cc1 [indomethacin, 2-(1-(4-chlorobenzoyl)-5-methoxy-2′-methyl-1H-indol-3-yl)ethanoic acid, reference compound] | – | – | 1.0 mg/kg | – | substantial gastric erosion and bleeding
